Test [1] has as its system chronic colitis provoked by trinitrobenzene sulphonic acid (TNBS). The experiment in a line: Rat model of chronic colitis provoked by TNBS over 14 days, treatment from Day 1. The class given is in vivo. The following applies: for macroscopic Damage Score / reduction in colon weight / reduction in colonic MPO activity / reduction in colonic TNF-α levels / reduction in colonic lesion area (% of the total area measured): Day 14; for reduction in colon weight / reduction in colonic MPO activity / reduction in colonic TNF-α levels / reduction in colonic lesion area (% of the total area measured) / attenuation of TNBS-induced fall in body weight (% change of body weight at Day −1): vs CMC group; for attenuation of TNBS-induced fall in body weight (% change of body weight at Day −1): over 14 days. The text has this: In the chronic model of colitis, assessment of the colonic inflammation is made 14 days or longer, after the intracolonic challenge with TNBS (Boughton-Smith et al, 1988a, 1988b; Wallace et al, 1989; Rachmilewitz et al, 1989; Wallace and Keenan, 1990; Ameho et al, 1987; Sans et al, 1999; Sun et al, 2001; Maric et al, 2003; Moreels et al, 2004; Gonzalez et al, 2004). This model allows treatment with experimental agents to commence following the establishment of the colonic injury, typically 24 hours after the TNBS challenge (Galvez et al, 2000, Villegas, 2003, Gonzalez et al, 2004). The model should therefore identify the ability of the experimental compounds to accelerate the diminution of the inflammatory response and to promote healing of the colonic lesions. This model thus has relevance additional to the acute model, as the clinical correlate is the therapeutic intervention in patients with existing IBD not in remission or with flare-up, to reduce the crisis. This contrasts with the acute TNBS model where the compounds are administered one or two days prior to challenge, the clinical correlate being the use of prophylactic therapy to prevent flare-up and maintain remission in IBD patients.
In this current study, the low intracolonic challenge concentration of TNBS used in the acute studies was also used for the chronic study over a 14 day period. This concentration and timing was based on the findings from pilot studies where a range of concentrations of TNBS and treatment conditions were evaluated over a 14 day period. […].
The methods and protocol used were substantially similar to those in Example 39-40, with some differences described below.
TNBS Challenge. Male Wistar rats (average body weight, 210 g) were randomised into groups before commencement of the study. In all groups, including the non-challenged and non-treated absolute control group, food was withdrawn for 12 h before TNBS administration (i.e. overnight on Day −1), but the rats were allowed free access to drinking water.
On the morning of the day of challenge (Day 0, between 9.00 and 1 1.00 a.m.), the rats were transiently anaesthetised with ether and the TNBS solution (10 mg in 0.25 ml of 50% ethanol) was instilled approximately 6-8 cm into the colon using a soft plastic catheter inserted in the rat rectum. The rats were allowed to recover with free access to food and drinking water. At the end of the experiment, on the morning of Day 14, between 9.00 and 11.00), the colon was dissected, and the distal 8 cm photographed and immediately processed or stored appropriately for subsequent analyses.
The following primary parameters were measured in the study: macroscopic scoring of distal 8 cm of colon; myeloperoxidase levels in segments of distal 8 cm of colon; TNF-α levels in segments of distal 8 cm of colon.
In addition, the weight of the standard colonic segment was assessed as an indirect and non-specific marker of oedema. The body weight of the animals was also determined each evening of the study, starting on Day-1, and also on the morning of Day 14. The data is shown graphically as the % change from the weight on Day-1, prior to challenge.
Treatments. The TNBS challenged groups for study were: (a) Vehicle control 0.5% carboxy methyl cellulose (CMC) p.o., twice daily from Day; (b) CCI-7506 25 mg/kg, p.o., twice daily from Day 1 (50 mg/kg/day total); (c) CCI-7506 50 mg/kg, p.o., twice daily from Day 1 (100 mg/kg/day total); (d) CCI-7507 12.5 mg/kg, p.o., twice daily from Day 1 (25 mg/kg/day total); (e) CCI-7507 25 mg/kg, p.o., twice daily from Day 1(50 mg/kg/day total); […]; (g) Infliximab 3 mg/kg, single slow i.v. injection, on Day 1 and Day7.
The experimental compounds that were administered orally were given twice a day from Day 1, i.e. 24 h following TNBS administration, for the remainder of the 14 day experimental period. Infliximab was administered by slow i.v. injection of Day 1 and on Day 7. […]

A short description of test [2]: Various In Vitro Cell Biology Assays (Example 41, Tables 23-26). The class given is cell-based. The conditions noted are these: PBMC, 24 h, IL-1 □ secretion (h) (PBMC), LPS 1 μg/ml, 24 h; 3×10^−6 M; read-out: % Inhibition of Control Values. How it is done:
In each experiment, the respective reference compound was tested concurrently with the test compounds in order to assess the assay suitability. It was tested at several concentrations (for IC50 value determination).
The test compounds were assayed at 3×10^−6 M.
Results. The results are expressed as a percent of control values and as a percent inhibition of control values obtained in the presence of the test compounds.
The IC50 values (concentration causing a half-maximal inhibition of control values) and Hill coefficients (nH) were determined by non-linear regression analysis of the inhibition curves using Hill equation curve fitting, a summary of the data is shown in Table 26. The IC50 value for each reference compound is indicated was determined (data not shown) and was within accepted limits of the historic average ±0.5 log units.

The test system of test [3] is colitis provoked by trinitrobenzene sulphonic acid (TNBS). The experiment in a line: Rat model of colitis provoked by TNBS, 3 days, treatment from Day −1 (CCI-7308). The following applies: for attenuation of TNBS-induced fall in body weight (% change in body weight at Day 0) / reduction in area of macroscopic colonic injury / reduction in colonic MPO activity / reduction in colon weight / reduction in colonic TNF-α levels: vs CMC group; for reduction in area of macroscopic colonic injury: 72 h after TNBS. It counts as in vivo. The source says:
In the study, colonic macroscopic injury has been assessed, as has colonic weight as a reflection of colonic oedema, along with determination of MPO activity (Bradley et al, 1982) as an index of white cell infiltration for the evaluation of tissue injury. The methods and protocol used were substantially similar to those in Example 39, with some differences described below. TNBS Challenge—Male Wistar rats (270-330 g) were randomised into groups of 10-11 before commencement of the study. The following primary parameters were measured in the study: In addition, the weight of the colonic segment was assessed as an indirect and non-specific marker of oedema. The body weight of the animals was also determined and expressed as % change from the day of challenge. Treatments. All challenged groups were dosed orally twice daily from Day −1. The groups for study were: Colon homogenates for cytokine measurements. […] Tissue homogenates were lysed for 30 min. on ice, and then centrifuged (10 min., 14, 000×g). The aliquots of the supernatant were stored at −20° C. until use (Ten Hove et al., 2001). Tumour Necrosis Factor-a Activity. The TNF-α levels were determined with quantitative TNF-α solid-phase Enzyme Linked ImmunoSorbent Assay (ELISA), which is based on the sandwich principle (HyCult biotechnology b. V;. Cat number: […] At the end of the ELISA assay, the samples were measured spectrophotometrically (Benchmark Microplate reader, Bio-Rad Lab; λ=450 nm). The samples were diluted 2 or 4 times with the sample buffer included in the kit. The TNF-α values were expressed as pg/mg protein. This commercially available kit (Hycult Biotechnology b.v. Uden, The Netherlands. Catalogue number: […]

Where [4] appears, read: 50 mg/kg/day p.o. in divided doses from Day 1.
[5] abbreviates: 4 mg/kg/day p.o. in divided doses.
[6] abbreviates: 20 mg/kg/day p.o. in divided doses.
Setting [7] is: 100 mg/kg/day p.o. in divided doses.

These results are taken from patent publication US20090264384A1, “INDOLE, BENZIMIDAZOLE, AND BENZOLACTAM BORONIC ACID COMPOUNDS, ANALOGS THEREOF AND METHODS OF USE THEREOF” (Nuada, Inc., priority 2004, published 2009).

What is called inhibition is how much of the control response was suppressed.

As to `COc1ccc(-c2nc3ccccc3n2CCCCCB(O)O)cc1` [CCI-7507], in test [1] (25 mg/kg/day p.o. from Day 1), the “macroscopic Damage Score” value is listed as “reduced the damage score”; the “reduction in colon weight” value is “significantly reduced the colonic weight of the standard segment at both doses”; the “reduction in colonic MPO activity” value was “significant and dose-dependent fall in the elevated MPO activity at both dose levels”; the “reduction in colonic TNF-α levels” value was “caused a significant reduction in the elevated levels of TNF-α”. Besides, in test [1] (25 mg/kg/day p.o. from Day 1), the “reduction in colonic lesion area (% of the total area measured)” value (shortened to “reduction … (% of the total area measured)”) is given as “statistically significant for both doses”. In addition, the “attenuation of TNBS-induced fall in body weight (% change of body weight at Day −1)” value in test [1] (25 mg/kg/day p.o. in divided doses from Day 1) is “significantly different from that in the CMC challenged group (P<0.05) on Days 2, 3, 4, 8, 9 and 10 post-challenge”. In test [1] (50 mg/kg/day p.o. from Day 1), the “macroscopic Damage Score” value is “reduced the damage score”; the “reduction in colon weight” value is recorded as “significantly reduced the colonic weight of the standard segment at both doses”; the “reduction in colonic MPO activity” value is “significant and dose-dependent fall in the elevated MPO activity at both dose levels”; the “reduction in colonic TNF-α levels” value is given as “caused a significant reduction in the elevated levels of TNF-α”. In addition, the “reduction … (% of the total area measured)” value in test [1] (50 mg/kg/day p.o. from Day 1) is recorded as “statistically significant for both doses”. In test [1] (setting [4]), the “attenuation of TNBS-induced fall in body weight (% change of body weight at Day −1)” value is “significantly different form the CMC group on all days from Day 2 to 10”.
Regarding `COc1ccc(-c2nc3ccccc3n2CCCCCB(O)O)cc1` [CCI-7308], the inhibition at 3 µM in test [2] came out at 68%. In addition, the “attenuation of TNBS-induced fall in body weight (% change in body weight at Day 0)” value was “significantly different from the challenged CMC control group on Day 1” in test [3] (4 mg/kg/day p.o. in divided doses b.i.d.); “significantly different from the CMC group on Days 1, 2 and 3” in test [3] (20 mg/kg/day p.o. in divided doses b.i.d.); “preventing the fall in body weight on all 3 days post-challenge” in test [3] (100 mg/kg/day p.o. in divided doses b.i.d.). Besides, the figures for the “reduction in area of macroscopic colonic injury” value in test [3] (setting [5]), in test [3] (setting [6]) and in test [3] (setting [7]) were “did not reach significance”, “statistically significant” and “statistically significant”, respectively. Besides, the “reduction in colonic MPO activity” value in test [3] (setting [5]), in test [3] (setting [6]) and in test [3] (setting [7]) was “significant (P<0.001) reduction in colonic MPO levels at all three dose levels” in each case. Moreover, the “reduction in colon weight” value in test [3] (setting [6]) and in test [3] (setting [7]) was “statistically significant” throughout. Further, the “reduction in colonic TNF-α levels” value in test [3] (setting [6]) and in test [3] (setting [7]) was “achieving significance” throughout. Also, the “relative potency versus sulfasalazine in reducing macroscopic injury” value in test [3] (preliminary indication, from comparison of molecular weights) is roughly 2.5 times.
For the compound `N#Cc1ccc2c(ccn2CCCCCB(O)O)c1` [CCI-7506], in test [1] (50 mg/kg/day p.o. from Day 1), the “macroscopic Damage Score” value is reported as “reduced the damage score”, the “reduction in colon weight” value is listed as “caused a significant reduction in the colon weight”, the “reduction in colonic MPO activity” value is “caused a significant fall in the elevated MPO activity” and the “reduction in colonic TNF-α levels” value is reported as “no significant effect on the colonic TNF-α levels”. Further, in test [1] (50 mg/kg/day p.o. from Day 1), the “reduction … (% of the total area measured)” value was “statistically significant for both doses”. Moreover, the “attenuation of TNBS-induced fall in body weight (% change of body weight at Day −1)” value in test [1] (setting [4]) was “significantly different from those in the challenged CMC control group on Days 2 to 10 and also on Days 13 and 14”. In addition, in test [1] (100 mg/kg/day p.o. from Day 1), the “macroscopic Damage Score” value was “reduced the damage score”, the “reduction in colon weight” value is given as “caused a significant reduction in the colon weight”, the “reduction in colonic MPO activity” value was “caused a significant fall in the elevated MPO activity” and the “reduction in colonic TNF-α levels” value is recorded as “did achieve significance”. Further, the “reduction … (% of the total area measured)” value in test [1] (100 mg/kg/day p.o. from Day 1) was “statistically significant for both doses”. In test [1] (100 mg/kg/day p.o. in divided doses from Day 1), the “attenuation of TNBS-induced fall in body weight (% change of body weight at Day −1)” value is “significantly different from the CMC group on Days 2, 3 and 4”.
